How the values were obtained:
[1] = tested on: white mustard (Sinapis alba L.); test: Growth chamber spray test, fresh mass of white mustard (Mecoprop ionic liquids); assay type: in vivo; conditions: 0.001 M spray in water/ethanol (1:2), 200 L/ha, 2 weeks after application; for Reduction of fresh mass (%): vs unsprayed control
Method: The research was conducted under controlled environmental conditions in a dedicated growth chamber. The test plant was white mustard (Sinapis alba L.). Seeds were sown into soil-filled containers equal to the depth of 1 cm. After producing first leave, only 5 plants were allowed to stay in each pot. After producing the 3rd leaf, the plants were sprayed with the ionic liquids studied using a Tee Jet 1102 sprayer, the sprayer moving above the plants at a constant speed of 3.1 m/s. The spray distance from the tips of the plant was 40 cm, the pressure of liquid in sprayer was 0.2 MPa, and a liquid in the expenditure per 1 ha was 200 L.
Examples of the ionic liquids described herein were dissolved in a solution of water and ethanol (1:2) in an amount corresponding to a concentration of 0.001 mol/L, or 0.533 g/L [DDA][MCPP-P], 0.520 g/L [BA][MCPP-P], and 0.546 g/L [DOM] [MCPP-P]. As a comparison, a commercial product containing 600 g of the herbicide Mecoprop-P in 1 L was used. After spraying the plants, the pots were placed back in a growth chamber at a temperature of 20° C. (±2° C.) and humidity of 50%. The illumination time was 16 hours per day.
After a period of 2 weeks, the plants were cut to the soil level and weighed (0.1 g accuracy). A study was carried out in 4 replications in a completely randomized setup. The reduction of plant fresh weight as compared to control (no sprayed plants) was measured.

[2] = tested on: common lambsquarters (Chenopodium album); test: Growth chamber spray test, fresh weight reduction (Dicamba ionic liquid); assay type: in vivo; conditions: 2 WAT
[3] = tested on: cornflower (Centaurea cyanus); test: Field test, visual effectiveness of weed eradication; assay type: in vivo; conditions: field plots, 4 WAT, mean estimate, solutions of 0.01 and 0.02 mol/dm^3, 100% = complete destruction
Method: (§1) Field test. The research was conducted in the Field Experimental Station of the Institute of Plant Protection in Winna Gora on the plots of dimensions 1.5 m×5 m. The test plants were common lambsquarters (Chenopodium album) and cornflower (Centaurea cyanus). The investigated ion pairs were alkyltrimethylammonium 3,6-dichloro-2-methoxybenzoate ([ATMA][Dicamba]) and didecyldimethylammonium 3,6-dichloro-2-methoxybenzoate ([DDA][Dicamba]).
(§2) Solutions of investigated ion pairs were prepared as follows: alkyltrimethylammonium 3,6-dichloro-2-methoxybenzoate [ATMA][Dicamba] and didecyldimethylammonium 3,6-dichloro-2-methoxybenzoate [DDA][Dicamba] were dissolved in a mixture of water and ethanol (1:1) in an amount corresponding to a concentration of 0.01 and 0.02 mol/dm^3. […] As controls, objects with no treatment were used and sprayed only with a solution of water and ethanol (1:1).
(§3) The procedures were performed using a sprayer equipped with a flat stream nozzles type Tee Jet 110 03 XR, with a steady pressure of 0.2 MPa and the expense of the liquid in use in 200 L per 1 hectare. During the procedure, the following weeds were at following developmental phases: common lambsquarters—from 4 to 10 leaves; and cornflower—a fully-formed rosette.
(§4) The effectiveness of weed eradication was evaluated visually by comparing the state of weeds on each plot treated with [DDA][Dicamba] and control solution.

[4] = tested on: common lambsquarters (Chenopodium album); test: as above; assay type: in vivo; conditions: field plots, 4 WAT, mean estimate, solutions of 0.01 and 0.02 mol/dm^3, 100% = complete destruction
Method: as §1, §2, §3, §4

[5] = tested on: white mustard (Sinapis alba); test: Growth chamber spray test, fresh weight reduction (Dicamba ionic liquid); assay type: in vivo; conditions: for Fresh weight reduction (%) Sinapis alba: 2 WAT
rat = conditions: cited from earlier work
[6] = tested on: common poppy (Papaver rhoeas); test: Growth chamber spray test, fresh weight reduction (Glyphosate ionic liquids); assay type: in vivo; conditions: 0.01 mol/L in water; 2 WAT
Method: Experiment in growth chamber: Temperature—20° C., humidity—60%, photoperiod (day/night hours)—16/8. The research was conducted under controlled environmental conditions in a dedicated growth chamber. The test plant was common poppy (Papaver rhoeas). The seeds were sown into soil-filled containers equal to the depth of 0.1 cm. After producing leaves, only 1 plant was allowed to stay in each pot. After producing the rosette, the plants were sprayed with the ionic liquids using a sprayer with Tee Jet 1102 nozzles. The sprayer was moving above the plants at a constant speed of 3.1 m/s. The spray distance from the tips of the plant was 40 cm, the pressure of liquid in sprayer was 0.2 MPa, and the liquid in the expenditure per 1 ha was 200 L.
The ionic liquids were dissolved in water in an amount corresponding to a concentration of 0.01 mol/L or 4.94 g/L [DDA][Glyphosate], 4.88 g/L [BA][Glyphosate]. As a comparison, a commercial product ROUNDUP™ containing 360 g of Glyphosate in 1 L was used. After spraying the plants, the pots were placed back in a growth chamber at a temperature of 20° C. (±2° C.) and humidity of 60%. The illumination time was 16 hours per day.
After a period of 2 weeks, the plants were cut right to the soil level and weighed (0.1 g accuracy). Fresh weight was used as the effect parameter. […]

[7] = 0.001 mole/L in water/DMSO (2:1)
[8] = 0.002 mole/L in water/DMSO (2:1)
[9] = 0.004 mole/L in water/DMSO (2:1)

In the case of “Domiphen (+)-(R)-2-(4-chloro-2-methylphenoxy)propionate [[DOM][MCPP-P]]”, the “Fresh mass of white mustard” value [1] is reported as 4.08 g and the “Reduction of fresh mass (%)” value [1] is reported as 66.5%.
In the case of “Didecyldimethylammonium 3,6-dichloro-2-methoxybenzoate [[DDA][Dicamba]]”, the “Fresh weight reduction (%) Chenopodium album” value [2, 7] is reported as 16.7%, the “Fresh weight reduction (%) Chenopodium album” value [2, 8] is reported as 41.7% and the “Fresh weight reduction (%) Chenopodium album” value [2, 9] is reported as 45.7%. For the same molecule, the “Effectiveness of Weed Eradication (%) Centaurea cyanus” value [3] was 95%, the “Effectiveness of Weed Eradication (%) Chenopodium album” value [4] was 92% and the “Fresh weight reduction (%) Sinapis alba” value [5, 7] was 6.8%. For the same molecule, the “Fresh weight reduction (%) Sinapis alba” value [5, 8] was 18.5%, the “Fresh weight reduction (%) Sinapis alba” value [5, 9] was 27.1% and the “Effect on the weight of Sinapis alba compared with neutral Dicamba” value ([5]; growth chamber, preliminary comparison) was “substantially more active than neutral Dicamba”.
In the case of “Benzalkonium (±)-2-(4-chloro-2-methylphenoxy)propionate [[BA][MCPP]]”, the “Fresh mass of white mustard” value [1] is reported as 5.13 g and the “Reduction of fresh mass (%)” value [1] is reported as 57.8%.
In the case of `Cc1cc(Cl)ccc1OCC(=O)O` [MCPA, 4-chloro-2-methylphenoxyacetic acid], the “rat LD50” value (rat) is given as 962 to 1470 mg/kg.
For “Didecyldimethylammonium Glyphosate [[DDA][Glyphosate]]”, the “Fresh weight reduction of Papaver rhoeas (%)” value [6] was 78.3%.
With “Didecyldimethylammonium (+)-(R)-2-(4-chloro-2-methylphenoxy)propionate [[DDA][MCPP-P]]” the “Fresh mass of white mustard” value [1] was 4.78 g and the “Reduction of fresh mass (%)” value [1] was 60.7%.
With “Benzalkonium Glyphosate [[BA][Glyphosate]]” the “Fresh weight reduction of Papaver rhoeas (%)” value [6] was 84.0%.
In the case of `O=C(O)COc1ccc(Cl)cc1Cl` [Example 2.4-D, 2,4-dichlorophenoxyacetic acid], the “rat LD50” value (rat) is given as 639 to 764 mg/kg.
